The term Ki denotes the equilibrium dissociation constant of an inhibitor or competing ligand from its target. Lower therefore signals a stronger hold on the target.

Among the data in patent US12441762B2, “Hepatitis c virus NS3/4A protease inhibitors” (priority 2019, dated 2025) are Ki values, retold here.

In experiment [1] the target is T1, HCV NS3/4A protease D168A variant (Hepatitis C virus genotype 1a, UniProt P27958, C1185S/D1194A).
T1 construct: His-tag (cleaved yes); made in house; host or cells: Escherichia coli BL21(DE3), PET28a vector
Description: biochemical. The class given is biochemical. Here is the method: (§1) The HCV GT1a NS3/4A protease gene described in the Bristol Myers Squibb patent was synthesized by GenScript and cloned into a PET28a expression vector. Cys159 was mutated to a serine residue to prevent disulfide bond formation and facilitate crystallization. The D168A gene was engineered using the site-directed mutagenesis protocol from Stratagene. Protein expression and purification were carried out as previously described.
(§2) Km constants for GT1 and D168A protease were previously determined. […] Inner filter effect corrections were applied to the initial velocities (Vo) at each substrate concentration. Vo versus substrate concentration graphs were globally fit to the Michaelis-Menten equation to obtain the Km value.
(§3) For each assay, 2 nM of NS3/4A protease (GT1a and D168A) was pre-incubated at room temperature for 1 h with increasing concentration of inhibitors in assay buffer (50 mM Tris, 5% glycerol, 10 mM DTT, 0.6 mM LDAO, and 4% dimethyl sulfoxide, pH 7.5). Inhibition assays were performed in non-binding surface 96-well black half-area plates (Corning) in a reaction volume of 60 μL. […] Three independent data sets were collected for each inhibitor with each protease construct.

The target of experiment [2] is T2, wild-type HCV NS3/4A protease (GT1a) (Hepatitis C virus genotype 1a, UniProt P27958, C1185S).
T2 construct: His-tag (cleaved yes); made in house; host or cells: Escherichia coli BL21(DE3), PET28a vector
Description: biochemical. Format: biochemical. Here is the method: as §1, §2, §3

T1 sequence (P27958 1027-1208 C1185S/D1194A): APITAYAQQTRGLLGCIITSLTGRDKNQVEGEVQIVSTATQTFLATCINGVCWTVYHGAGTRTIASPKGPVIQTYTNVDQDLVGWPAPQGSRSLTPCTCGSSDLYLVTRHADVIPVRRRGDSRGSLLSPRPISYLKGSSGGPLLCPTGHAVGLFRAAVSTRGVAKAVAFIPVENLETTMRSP
T2 sequence (P27958 1027-1208 C1185S): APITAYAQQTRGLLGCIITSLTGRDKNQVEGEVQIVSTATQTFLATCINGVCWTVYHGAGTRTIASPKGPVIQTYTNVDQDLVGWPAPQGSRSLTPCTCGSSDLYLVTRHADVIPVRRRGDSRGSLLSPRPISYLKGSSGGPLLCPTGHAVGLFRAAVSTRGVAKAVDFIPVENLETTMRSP

Regarding `COc1ccc2nc(C)c(O[C@@H]3C[C@H]4C(=O)N[C@]5(C(=O)NS(=O)(=O)C6(C)CC6)C[C@H]5/C=C\CCCCC[C@H](NC(=O)O[C@H](C)C(C)C)C(=O)N4C3)nc2c1` [NR01-119, (R)-3-Methylbutan-2-yl ((2R,6S,13aS,14aR,16aS,Z)-2-((7-methoxy-3-methylquinoxalin-2-yl)oxy)-14a-(((1-methylcyclopropyl)sulfonyl)carbamoyl)-5,16-dioxo-1,2,3,5,6,7,8,9,10,11,13a,14,14a,15,16,16a-hexadecahydrocyclopropa[e]pyrrolo[1,2-a][1,4]diazacyclopentadecin-6-yl)carbamate], the inhibition constant Ki in experiment [1] is 0.0239 ± 0.0035 µM; in experiment [2] it was 0.00152 ± 2e-05 µM.

`COc1ccc2nc(C(F)(F)F)c(O[C@@H]3C[C@H]4C(=O)N[C@]5(C(=O)NS(=O)(=O)C6(C)CC6)C[C@H]5/C=C\CCCCC[C@H](NC(=O)O[C@H](C)C(C)C)C(=O)N4C3)nc2c1` [NR01-121, (R)-3-Methylbutan-2-yl ((2R,6S,13aS,14aR,16aS,Z)-2-((7-methoxy-3-(trifluoromethyl)quinoxalin-2-yl)oxy)-14a-(((1-methylcyclopropyl)sulfonyl)carbamoyl)-5,16-dioxo-1,2,3,5,6,7,8,9,10,11,13a,14,14a,15,16,16a-hexadecahydrocyclopropa[e]pyrrolo[1,2-a][1,4]diazacyclopentadecin-6-yl)carbamate]: the inhibition constant (Ki) in experiment [1] stood at 0.0104 ± 0.0009 µM; in experiment [2] it was 0.00296 ± 0.00022 µM.

For `COc1ccc2nc(C)c(O[C@@H]3C[C@H]4C(=O)N[C@]5(C(=O)NS(=O)(=O)C6(C)CC6)C[C@H]5/C=C\CCCCC[C@H](NC(=O)OC5CCC5)C(=O)N4C3)nc2c1` [NR01-127, Cyclobutyl ((2R,6S,13aS,14aR,16aS,Z)-2-((7-methoxy-3-methylquinoxalin-2-yl)oxy)-14a-(((1-methylcyclopropyl)sulfonyl)carbamoyl)-5,16-dioxo-1,2,3,5,6,7,8,9,10,11,13a,14,14a,15,16,16a-hexadecahydrocyclopropa[e]pyrrolo[1,2-a][1,4]diazacyclopentadecin-6-yl)carbamate], the Ki in experiment [1] was determined as 0.0524 ± 0.009 µM; in experiment [2], 0.0003 ± 0.0002 µM.

`COc1ccc2nc(C(F)(F)F)c(O[C@@H]3C[C@H]4C(=O)N[C@]5(C(=O)NS(=O)(=O)C6(C)CC6)C[C@H]5/C=C\CCCCC[C@H](NC(=O)OC(C)(C)C(F)(F)F)C(=O)N4C3)nc2c1` [NR01-129, 1,1,1-Trifluoro-2-methylpropan-2-yl ((2R,6S,13aS,14aR,16aS,Z)-2-((7-methoxy-3-(trifluoromethyl)quinoxalin-2-yl)oxy)-14a-(((1-methylcyclopropyl)sulfonyl)carbamoyl)-5,16-dioxo-1,2,3,5,6,7,8,9,10,11,13a,14,14a,15,16,16a-hexadecahydrocyclopropa[e]pyrrolo[1,2-a][1,4]diazacyclopentadecin-6-yl)carbamate]: the Ki in experiment [1] was determined as 0.0155 ± 0.0018 µM; in experiment [2], 0.0036 ± 0.0003 µM.

For `COc1ccc2nc(C(F)(F)F)c(O[C@@H]3C[C@H]4C(=O)N[C@]5(C(=O)NS(=O)(=O)C6(C)CC6)C[C@H]5/C=C\CCCCC[C@H](NC(=O)O[C@H](C)C(F)(F)F)C(=O)N4C3)nc2c1` [NR01-147, (R)-1,1,1-Trifluoropropan-2-yl ((2R,6S,13aS,14aR,16aS,Z)-2-((7-methoxy-3-(trifluoromethyl)quinoxalin-2-yl)oxy)-14a-(((1-methylcyclopropyl)sulfonyl)carbamoyl)-5,16-dioxo-1,2,3,5,6,7,8,9,10,11,13a,14,14a,15,16,16a-hexadecahydrocyclopropa[e]pyrrolo[1,2-a][1,4]diazacyclopentadecin-6-yl)carbamate], the Ki in experiment [1] is 0.017 ± 0.0024 µM; in experiment [2], 0.0028 ± 0.0007 µM.

As for `COc1ccc2nc(C)c(O[C@@H]3C[C@H]4C(=O)N[C@]5(C(=O)NS(=O)(=O)C6(C)CC6)C[C@H]5/C=C\CCCCC[C@H](NC(=O)OC5CC(F)(F)C5)C(=O)N4C3)nc2c1` [NR01-149, 3,3-Difluorocyclobutyl ((2R,6S,13aS,14aR,16aS,Z)-2-((7-methoxy-3-methylquinoxalin-2-yl)oxy)-14a-(((1-methylcyclopropyl)sulfonyl)carbamoyl)-5,16-dioxo-1,2,3,5,6,7,8,9,10,11,13a,14,14a,15,16,16a-hexadecahydrocyclopropa[e]pyrrolo[1,2-a][1,4]diazacyclopentadecin-6-yl)carbamate], the Ki in experiment [1] came to 0.026 ± 0.001 µM; in experiment [2] it was 0.00062 ± 0.0003 µM.

As to `COc1ccc2nc(C(F)(F)F)c(O[C@@H]3C[C@H]4C(=O)N[C@]5(C(=O)NS(=O)(=O)C6(C)CC6)C[C@H]5/C=C\CCCCC[C@H](NC(=O)OC5CC(F)(F)C5)C(=O)N4C3)nc2c1` [NR01-151, 3,3-Difluorocyclobutyl ((2R,6S,13aS,14aR,16aS,Z)-2-((7-methoxy-3-(trifluoromethyl)quinoxalin-2-yl)oxy)-14a-(((1-methylcyclopropyl)sulfonyl)carbamoyl)-5,16-dioxo-1,2,3,5,6,7,8,9,10,11,13a,14,14a,15,16,16a-hexadecahydrocyclopropa[e]pyrrolo[1,2-a][1,4]diazacyclopentadecin-6-yl)carbamate], the Ki in experiment [1] amounted to 0.0432 ± 0.0063 µM; in experiment [2], 0.0109 ± 0.0011 µM.

Turning to `COc1ccc2nc(C(F)(F)F)c(O[C@@H]3C[C@H]4C(=O)N[C@]5(C(=O)NS(=O)(=O)C6(C)CC6)C[C@H]5/C=C\CCCCC[C@H](NC(=O)O[C@@H]5CCC[C@H]5F)C(=O)N4C3)nc2c1` [NR02-09, (1R,2R)-2-Fluorocyclopentyl ((2R,6S,13aS,14aR,16aS,Z)-2-((7-methoxy-3-(trifluoromethyl)quinoxalin-2-yl)oxy)-14a-(((1-methylcyclopropyl)sulfonyl)carbamoyl)-5,16-dioxo-1,2,3,5,6,7,8,9,10,11,13a,14,14a,15,16,16a-hexadecahydrocyclopropa[e]pyrrolo[1,2-a][1,4]diazacyclopentadecin-6-yl)carbamate], the Ki worked out at 0.0189 ± 0.0036 µM in experiment [1] and 0.008 ± 0.0018 µM in experiment [2].

In the case of `COc1ccc2nc(C)c(O[C@@H]3C[C@H]4C(=O)N[C@]5(C(=O)NS(=O)(=O)C6(C)CC6)C[C@H]5/C=C\CCCCC[C@H](NC(=O)O[C@@H](C)C(F)(F)F)C(=O)N4C3)nc2c1` [NR02-23, (S)-1,1,1-Trifluoropropan-2-yl ((2R,6S,13aS,14aR,16aS,Z)-2-((7-methoxy-3-methylquinoxalin-2-yl)oxy)-14a-(((1-methylcyclopropyl)sulfonyl)carbamoyl)-5,16-dioxo-1,2,3,5,6,7,8,9,10,11,13a,14,14a,15,16,16a-hexadecahydrocyclopropa[e]pyrrolo [1,2-a][1,4]diazacyclopentadecin-6-yl)carbamate], the results for the inhibitory constant (Ki) in experiment [1] and in experiment [2] were 0.04 ± 0.006 µM and 0.00074 ± 0.0002 µM, respectively.

For the molecule `COc1ccc2nc(C)c(O[C@@H]3C[C@H]4C(=O)N[C@]5(C(=O)NS(=O)(=O)C6(C)CC6)C[C@H]5/C=C\CCCCC[C@H](NC(=O)O[C@@H](C)C5CC5)C(=O)N4C3)nc2c1` [NR02-25, (S)-1-Cyclopropylethyl ((2R,6S,13aS,14aR,16aS,Z)-2-((7-methoxy-3-methylquinoxalin-2-yl)oxy)-14a-(((1-methylcyclopropyl)sulfonyl)carbamoyl)-5,16-dioxo-1,2,3,5,6,7,8,9,10,11,13a,14,14a,15,16,16a-hexadecahydrocyclopropa[e]pyrrolo [1,2-a][1,4]diazacyclopentadecin-6-yl)carbamate], the inhibitory constant (Ki) in experiment [1] is 0.0319 ± 0.0018 µM; in experiment [2], 0.00184 ± 0.00012 µM.

`COc1ccc2nc(C)c(O[C@@H]3C[C@H]4C(=O)N[C@]5(C(=O)NS(=O)(=O)C6(C)CC6)C[C@H]5/C=C\CCCCC[C@H](NC(=O)O[C@H](C)C5CC5)C(=O)N4C3)nc2c1` [NR02-26, (R)-1-Cyclopropylethyl ((2R,6S,13aS,14aR,16aS,Z)-2-((7-methoxy-3-methylquinoxalin-2-yl)oxy)-14a-(((1-methylcyclopropyl)sulfonyl)carbamoyl)-5,16-dioxo-1,2,3,5,6,7,8,9,10,11,13a,14,14a,15,16,16a-hexadecahydrocyclopropa[e]pyrrolo[1,2-a][1,4]diazacyclopentadecin-6-yl)carbamate]: the inhibition constant (Ki) in experiment [1] was determined as 0.0235 ± 0.0013 µM; in experiment [2], 0.0015 ± 6e-05 µM.

In the case of `COc1ccc2nc(C(F)(F)F)c(O[C@@H]3C[C@H]4C(=O)N[C@]5(C(=O)NS(=O)(=O)C6(C)CC6)C[C@H]5/C=C\CCCCC[C@H](NC(=O)OC5(C)CC5)C(=O)N4C3)nc2c1` [NR02-31, 1-Methylcyclopropyl ((2R,6S,13aS,14aR,16aS,Z)-2-((7-methoxy-3-(trifluoromethyl)quinoxalin-2-yl)oxy)-14a-(((1-methylcyclopropyl)sulfonyl)carbamoyl)-5,16-dioxo-1,2,3,5,6,7,8,9,10,11,13a,14,14a,15,16,16a-hexadecahydrocyclopropa[e]pyrrolo[1,2-a][1,4]diazacyclopentadecin-6-yl)carbamate], the Ki in experiment [1] turned out to be 0.0413 ± 0.0073 µM; in experiment [2] it was 0.0114 ± 0.00084 µM.

`COc1ccc2nc(C(F)(F)F)c(O[C@@H]3C[C@H]4C(=O)N[C@]5(C(=O)NS(=O)(=O)C6(C)CC6)C[C@H]5/C=C\CCCCC[C@H](NC(=O)O[C@H](C)C5CC5)C(=O)N4C3)nc2c1` [NR02-34, (R)-1-Cyclopropylethyl ((2R,6S,13aS,14aR,16aS,Z)-2-((7-methoxy-3-(trifluoromethyl)quinoxalin-2-yl)oxy)-14a-(((1-methylcyclopropyl)sulfonyl)carbamoyl)-5,16-dioxo-1,2,3,5,6,7,8,9,10,11,13a,14,14a,15,16,16a-hexadecahydrocyclopropa[e]pyrrolo[1,2-a][1,4]diazacyclopentadecin-6-yl)carbamate]: the figures for the inhibition constant (Ki) in experiment [1] and in experiment [2] were 0.0262 ± 0.0006 µM and 0.0118 ± 0.0014 µM, respectively.
